Columns and labels:
Type in all cases: biochemical
[1] = molecular target: T1, N-terminal GST-tagged recombinant human Flt3, residues 564-end (Homo sapiens, UniProt P36888); assay: Flt3 kinase inhibition assay (33P-ATP filter assay); conditions: 40 minutes at room temperature
T1 construct: recombinant human Flt3, residues 564-end; GST (N); purchased Upstate USA Inc, 706 Forest Street, Charlottesville, Va
T1 sequence (P36888 564-993 limits assumed): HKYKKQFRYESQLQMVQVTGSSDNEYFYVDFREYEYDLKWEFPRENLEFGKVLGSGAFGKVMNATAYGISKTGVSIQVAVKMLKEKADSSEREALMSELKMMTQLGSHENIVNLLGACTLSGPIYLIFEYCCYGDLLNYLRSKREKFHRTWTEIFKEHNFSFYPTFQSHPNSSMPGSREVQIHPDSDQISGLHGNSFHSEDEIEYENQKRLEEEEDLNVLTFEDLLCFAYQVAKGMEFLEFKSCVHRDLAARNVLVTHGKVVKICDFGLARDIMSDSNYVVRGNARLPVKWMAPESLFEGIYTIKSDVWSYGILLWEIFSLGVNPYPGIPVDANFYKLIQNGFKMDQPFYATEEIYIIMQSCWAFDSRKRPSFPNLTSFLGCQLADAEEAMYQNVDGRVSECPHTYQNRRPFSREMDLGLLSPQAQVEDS
How it was run: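 Serial compound dilutions incubated 40 min at room temperature with 5-10 mU Flt3 kinase, 50 μM peptide substrate and [γ-33P]ATP/10 mM magnesium acetate, pH 7.0. Phosphoric acid stop, filter capture and scintillation counting; activity compared with uninhibited reactions.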

[2] = molecular target: T2, N-terminal His6-tagged recombinant human KDR, residues 790-end (Homo sapiens, UniProt P35968); assay: KDR kinase inhibition assay (33P-ATP filter assay)
T2 construct: recombinant human KDR, residues 790-end; His6 (N); purchased Upstate USA Inc, 706 Forest Street, Charlottesville, Va
T2 sequence (P35968 790-1356 limits assumed): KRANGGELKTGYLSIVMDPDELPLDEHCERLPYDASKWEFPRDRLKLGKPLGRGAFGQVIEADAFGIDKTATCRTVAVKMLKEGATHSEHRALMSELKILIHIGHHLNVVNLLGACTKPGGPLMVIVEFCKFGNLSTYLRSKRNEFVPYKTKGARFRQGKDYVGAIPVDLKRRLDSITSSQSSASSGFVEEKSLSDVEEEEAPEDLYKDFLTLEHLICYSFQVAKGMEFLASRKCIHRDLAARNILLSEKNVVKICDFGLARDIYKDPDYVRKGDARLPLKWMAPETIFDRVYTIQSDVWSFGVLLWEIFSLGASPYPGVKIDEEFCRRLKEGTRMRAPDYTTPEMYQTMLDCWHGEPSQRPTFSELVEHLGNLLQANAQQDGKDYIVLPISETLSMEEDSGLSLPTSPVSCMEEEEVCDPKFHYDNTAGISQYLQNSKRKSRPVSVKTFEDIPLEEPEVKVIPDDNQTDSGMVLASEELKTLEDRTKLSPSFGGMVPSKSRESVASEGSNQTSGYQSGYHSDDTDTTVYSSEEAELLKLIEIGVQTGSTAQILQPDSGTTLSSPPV
How it was run: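 His6-tagged human KDR (residues 790-end, 5-10 mU) with 0.33 mg/mL myelin basic protein in 8 mM MOPS pH 7.0, 0.2 mM EDTA, 10 mM magnesium acetate and [γ-33P]ATP; 40 min at room temperature. Stopped with phosphoric acid, filter-bound 33P counted; inhibition relative to no-inhibitor controls.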

recombinant Aurora A = molecular target: T3, recombinant Aurora A (Homo sapiens, UniProt O14965); assay: Aurora A (Aurora 2) inhibition assay, Z'-Lyte kinase assay; conditions: ATP 10 μM, 1 h
T3 construct: purchased Upstate, Lake Placid, N.Y
T3 sequence (O14965 1-403): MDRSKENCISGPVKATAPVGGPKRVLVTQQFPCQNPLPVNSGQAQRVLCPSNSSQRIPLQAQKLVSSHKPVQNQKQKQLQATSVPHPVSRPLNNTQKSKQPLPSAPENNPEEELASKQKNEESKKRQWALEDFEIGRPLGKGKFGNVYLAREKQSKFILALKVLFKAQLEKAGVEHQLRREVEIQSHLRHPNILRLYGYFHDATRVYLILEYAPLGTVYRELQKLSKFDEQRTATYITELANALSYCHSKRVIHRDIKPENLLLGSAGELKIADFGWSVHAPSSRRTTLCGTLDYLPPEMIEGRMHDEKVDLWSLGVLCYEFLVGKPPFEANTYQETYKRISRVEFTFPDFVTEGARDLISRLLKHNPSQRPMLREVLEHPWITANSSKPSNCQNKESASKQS
How it was run: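 Z'-Lyte FRET assay: Aurora A (200-500 ng/mL final), Ser/Thr 1 peptide (2 μM) and ATP (10 μM) in 50 mM HEPES pH 7.5, 10 mM MgCl2, 5 mM EGTA, 0.05% Brij-35, 2 mM DTT, 1 h at room temperature. Coumarin/fluorescein emission ratio converted to percent phosphorylation; dose-response curves plotted.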

[3] = group with IC50 greater than 100 nM

Row | SMILES | IC50 [1] | IC50 ([2]; 40 minutes at room temperature) | IC50 (recombinant Aurora A) | IC50 [2, 3] | IC50 (recombinant Aurora A; [3])
1 | Cc1cc(Nc2cc(N3CCN(C)CC3)nc(-c3cccc4ccccc34)n2)n[nH]1 [Example 134, N-(5-methyl-1H-pyrazol-3-yl)-6-(4-methylpiperazin-1-yl)-2-(naphthalen-1-yl)pyrimidin-4-amine] | ≤ 0.1 µM | ≤ 0.1 µM | ≤ 0.1 µM |  | 
2 | Cc1cc(Nc2cc(N3CCN(C)CC3)nc(-c3ccc4ccccc4c3)n2)n[nH]1 [Example 135, N-(5-methyl-1H-pyrazol-3-yl)-6-(4-methylpiperazin-1-yl)-2-(naphthalen-2-yl)pyrimidin-4-amine] | ≤ 0.1 µM | ≤ 0.1 µM | ≤ 0.1 µM |  | 
3 | Cc1cc(Nc2cc(N3CCN(C)CC3)nc(-c3ccc4c(c3)OCCO4)n2)n[nH]1 [Example 137, 2-(2,3-dihydrobenzo[b][1,4]dioxin-6-yl)-N-(5-methyl-1H-pyrazol-3-yl)-6-(4-methylpiperazin-1-yl)pyrimidin-4-amine] | ≤ 0.1 µM | ≤ 0.1 µM | ≤ 0.1 µM |  | 
4 | Cc1cc(Nc2cc(N3CCN(C)CC3)nc(-c3ccc4c(c3)OCO4)n2)n[nH]1 [Example 139, 2-(benzo[d][1,3]dioxol-5-yl)-N-(5-methyl-1H-pyrazol-3-yl)-6-(4-methylpiperazin-1-yl)pyrimidin-4-amine] | ≤ 0.1 µM | ≤ 0.1 µM | ≤ 0.1 µM |  | 
5 | COCCN(C)c1cc(Nc2cc(C)[nH]n2)nc(-c2ccc3c(c2)OCO3)n1 [Example 153, 2-(benzo[d][1,3]dioxol-5-yl)-N^4-(2-methoxyethyl)-N^4-methyl-N^6-(5-methyl-1H-pyrazol-3-yl)pyrimidine-4,6-diamine] | ≤ 0.1 µM |  | ≤ 0.1 µM | ≤ 1 µM | 
6 | Cc1cc(Nc2cc(N3CCN(C)CC3)nc(-c3cc4cc(NS(=O)(=O)C5CC5)ccc4o3)n2)n[nH]1 [Example 155, N-(2-(4-(5-methyl-1H-pyrazol-3-ylamino)-6-(4-methylpiperazin-1-yl)pyrimidin-2-yl)benzofuran-5-yl)cyclopropanesulfonamide] | ≤ 0.1 µM | ≤ 0.1 µM | ≤ 0.1 µM |  | 
7 | Cc1cc(Nc2cc(NC3CCOCC3)nc(-c3cc4cc(NS(=O)(=O)C5CC5)ccc4o3)n2)n[nH]1 [Example 156, N-(2-(4-(5-methyl-1H-pyrazol-3-ylamino)-6-(tetrahydro-2H-pyran-4-ylamino)pyrimidin-2-yl)benzofuran-5-yl)cyclopropanesulfonamide] | ≤ 0.1 µM |  | ≤ 0.1 µM | ≤ 1 µM | 
8 | Cc1cc(Nc2cc(NC3CCOCC3)nc(-c3cccc(-c4ccccc4)c3)n2)n[nH]1 [Example 159, 2-(biphenyl-3-yl)-N^4-(5-methyl-1H-pyrazol-3-yl)-N^6-(tetrahydro-2H-pyran-4-yl)pyrimidine-4,6-diamine] | ≤ 0.1 µM |  | ≤ 0.1 µM | ≤ 1 µM | 
9 | Cc1cc(Nc2cc(N3CCN(C)CC3)nc(-c3ccc(C#N)cc3)n2)n[nH]1 [Example 160, 4-(4-(5-methyl-1H-pyrazol-3-ylamino)-6-(4-methylpiperazin-1-yl)pyrimidin-2-yl)benzonitrile] | ≤ 0.1 µM |  |  | ≤ 1 µM | ≤ 1 µM
10 | Cc1cc(Nc2cc(N3CCN(C)CC3)nc(-c3cccc([N+](=O)[O-])c3)n2)n[nH]1 [Example 162, N-(5-methyl-1H-pyrazol-3-yl)-6-(4-methylpiperazin-1-yl)-2-(3-nitrophenyl)pyrimidin-4-amine] | ≤ 0.1 µM | ≤ 0.1 µM | ≤ 0.1 µM |  | 
11 | Cc1cc(Nc2cc(N3CCN(C)CC3)nc(-c3cccc(C#N)c3)n2)n[nH]1 [Example 163, 3-(4-(5-methyl-1H-pyrazol-3-ylamino)-6-(4-methylpiperazin-1-yl)pyrimidin-2-yl)benzonitrile] | ≤ 0.1 µM | ≤ 0.1 µM | ≤ 0.1 µM |  | 
12 | CC(=O)c1cccc(-c2nc(Nc3cc(C)[nH]n3)cc(N3CCN(C)CC3)n2)c1 [Example 165, 1-(3-(4-(5-methyl-1H-pyrazol-3-ylamino)-6-(4-methylpiperazin-1-yl)pyrimidin-2-yl)phenyl)ethanone] | ≤ 0.1 µM | ≤ 0.1 µM | ≤ 0.1 µM |  | 
13 | COC(=O)c1cccc(-c2nc(Nc3cc(C)[nH]n3)cc(N3CCN(C)CC3)n2)c1 [Example 166, methyl 3-(4-(5-methyl-1H-pyrazol-3-ylamino)-6-(4-methylpiperazin-1-yl)pyrimidin-2-yl)benzoate] | ≤ 0.1 µM | ≤ 0.1 µM | ≤ 0.1 µM |  | 
14 | Cc1cc(Nc2cc(N3CCN(C)CC3)nc(-c3ccc(F)c(F)c3)n2)n[nH]1 [Example 168, 2-(3,4-difluorophenyl)-N-(5-methyl-1H-pyrazol-3-yl)-6-(4-methylpiperazin-1-yl)pyrimidin-4-amine] | ≤ 0.1 µM |  | ≤ 0.1 µM | ≤ 1 µM | 
15 | Cc1cc(C)cc(-c2nc(Nc3cc(C)[nH]n3)cc(N3CCN(C)CC3)n2)c1 [Example 169, 2-(3,5-dimethylphenyl)-N-(5-methyl-1H-pyrazol-3-yl)-6-(4-methylpiperazin-1-yl)pyrimidin-4-amine] | ≤ 0.1 µM | ≤ 0.1 µM | ≤ 0.1 µM |  | 
16 | COCCN(C)c1cc(Nc2cc(C)[nH]n2)nc(-c2ccccc2)n1 [Example 171, N^4-(2-methoxyethyl)-N^4-methyl-N^6-(5-methyl-1H-pyrazol-3-yl)-2-phenyl pyrimidine-4,6-diamine] | ≤ 0.1 µM | ≤ 0.1 µM | ≤ 0.1 µM |  | 
17 | CCc1ccccc1-c1nc(Nc2cc(C)[nH]n2)cc(NC2CCOCC2)n1 [Example 174, 2-(2-ethylphenyl)-N^4-(5-methyl-1H-pyrazol-3-yl)-N^6-(tetrahydro-2H-pyran-4-yl)pyrimidine-4,6-diamine] | ≤ 0.1 µM |  |  | ≤ 1 µM | ≤ 1 µM
18 | CCc1ccccc1-c1nc(Nc2cc(C)[nH]n2)cc(N2CCN(C)CC2)n1 [Example 175, 2-(2-ethylphenyl)-N-(5-methyl-1H-pyrazol-3-yl)-6-(4-methylpiperazin-1-yl)pyrimidin-4-amine] | ≤ 0.1 µM | ≤ 0.1 µM |  |  | ≤ 1 µM
19 | Cc1cc(Nc2cc(N3CCN(C)CC3)nc(-c3ccc4c(c3)OC(F)(F)O4)n2)n[nH]1 [Example 178, 2-(2,2-difluorobezo[d][1,3]dioxol-5-yl)-N-(5-methyl-1H-pyrazol-3-yl)-6-(4-methylpiperazin-1-yl)pyrimidin-4-amine] | ≤ 0.1 µM |  |  | ≤ 1 µM | ≤ 1 µM
20 | Cc1cc(Nc2cc(N3CCN(C)CC3)nc(-c3cccc(C)c3C)n2)n[nH]1 [Example 179, 2-(2,3-dimethylphenyl)-N-(5-methyl-1H-pyrazol-3-yl)-6-(4-methylpiperazin-1-yl)pyrimidin-4-amine] | ≤ 0.1 µM | ≤ 0.1 µM |  |  | ≤ 1 µM
21 | COCCN(C)c1cc(Nc2cc(C)[nH]n2)nc(-c2cc(F)ccc2F)n1 [Example 184, 2-(2,5-difluorophenyl)-N^4-(2-methoxyethyl)-N^4-methyl-N^6-(5-methyl-1H-pyrazol-3-yl)pyrimidine-4,6-diamine] | ≤ 0.1 µM | ≤ 0.1 µM |  |  | ≤ 1 µM
22 | Cc1cc(Nc2cc(NC3CCOCC3)nc(-c3cc(F)ccc3F)n2)n[nH]1 [Example 185, 2-(2,5-difluorophenyl)-N^4-(5-methyl-1H-pyrazol-3-yl)-N^6-(tetrahydro-2H-pyran-4-yl)pyrimidine-4,6-diamine] | ≤ 0.1 µM | ≤ 0.1 µM | ≤ 0.1 µM |  | 
